Read-outs that look alike come from different tables or passages of the source.
Assays:
σ1R [1] = test system: σ1R; parameters: method as in PMID 28572487; conditions: human brain, three-hour imaging period; cited from earlier work
σ1R [2] = conditions: cited from earlier work
[3] = test system: non-target receptors or ion channels; parameters: method as in PMID 25420090; conditions: cited from earlier work
σ2R [4] = test system: σ2R; parameters: method as in PMID 25420090; conditions: selectivity ratio, previous work; cited from earlier work
[5] = parameters: method as in PMID 25420090; conditions: cited from earlier work
σ1R [6] = test system: σ1R; parameters: method as in PMID 25420090; conditions: rodent acute and neuropathic pain models; cited from earlier work
σ1R [7] = target: T1, σ1R (Mus musculus, UniProt O55242); test: Mice PET/CT imaging, baseline and self-blocking; assay type: in vivo, C57BL/6 mice
T1 construct: The PET/CT studies in mice followed previously reported procedures; from tissue; host or cells: mouse brain in vivo (C57BL/6 wild type; 5xFAD transgenic)
T1 sequence (O55242 whole entry): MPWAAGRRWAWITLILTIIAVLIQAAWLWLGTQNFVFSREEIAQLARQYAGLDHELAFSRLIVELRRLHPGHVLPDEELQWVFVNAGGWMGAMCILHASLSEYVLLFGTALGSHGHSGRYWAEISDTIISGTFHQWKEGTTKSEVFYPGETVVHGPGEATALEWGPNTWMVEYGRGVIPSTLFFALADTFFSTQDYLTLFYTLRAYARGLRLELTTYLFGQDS
Procedure: PET/CT imaging studies of [^11C]CNY‐01 and [^11C]CNY‐02 were performed in male C57BL/6 mice. […] The whole‐brain time‐activity curve (TAC) of each tracer was generated. […] To investigate the binding specificity of [^11C]CNY‐01 and [^11C]CNY‐02, blocking studies were carried out by pre‐administrating mice with corresponding unlabeled ligands. […] This is due to the receptors in peripheral tissues being occupied by CNY‐01, leading to more radiotracer entering the brain and quickly washing out. […] Of note, the TACs show an increase in brain tracer uptake during the blocking studies, which could be attributed to peripheral blocking effects. To address this, we normalized the brain uptake data to the maximum radioactivity observed in the blood (input function). This normalization allowed us to account for peripheral changes in tracer availability.
Figure 3 Mice PET/CT study with [^11C]CNY‐01 and [^11C]CNY‐02. A) Representative baseline and blocking (pre‐treated with 1.0 mg kg^−1 CNY‐01) PET/CT images of [^11C]CNY‐01 focused on the brain (summed 30‒60 min, n = 4). B) Whole brain time‐activity curves of [^11C]CNY‐01 for baseline and blocking mice. C) The normalized baseline and blocking TACs of [^11C]CNY‐01 (normalized the brain uptake curves with the maximum radioactivity in the blood at each time point). D) Representative baseline and blocking (pre‐treated with 1.0 mg kg^−1 CNY‐02) PET/CT images of [^11C]CNY‐02 focused on the brain (summed 30‒60 min, n = 4). E) Whole brain time‐activity curves of [^11C]CNY‐02 for baseline and blocking mice. F) The normalized baseline and blocking TACs of [^11C]CNY‐02 (normalized the brain uptake curves with the maximum radioactivity in the blood at each time point). Data were presented as mean ± standard error of the mean (SEM). Quantification of results was performed using Student's t‐test (***p < 0.0001).
The PET/CT studies in mice followed previously reported procedures with minor modifications.^[ [53], [54] ^] Mice (wild‐type: C57BL/6, male, 6‐month‐old; AD transgenic: 5xFAD, male, 6‐month‐old, n = 4 for each group) were anesthetized with inhalational isoflurane (Patterson Vet Supply, Inc., Greeley, CO, USA) at 2.0% in a carrier of 2 L min^−1 medical oxygen, and maintained at 1.0% isoflurane during the imaging scan. Mice were injected with radiotracer (200 µL) via lateral tail vein catheterization at the start of the dynamic PET scan (Gamma Medica, Northridge, CA, USA). For blocking studies, the blocking agent was administered via the tail vein 5 min before radiotracer injection. Dynamic PET acquisition lasted 60 min and was followed by computed tomography (CT) for anatomic co‐registration. […] Reconstructed images were exported from the scanner in DICOM format and were analyzed using PMOD (PMOD 4.01).

[8] = target: vesicular acetylcholine transporter (VAChT); conditions: off-target affinity; literature value, no reference given; cited from earlier work
σ2R [9] = test system: σ2R; parameters: method as in PMID 26384292; conditions: selectivity ratio; cited from earlier work
[10] = target: emopamil binding protein (EBP); parameters: method as in PMID 11377189; conditions: off-target affinity; cited from earlier work

For `O=c1sc2cc(CCC[18F])ccc2n1CCN1CCCCCC1` [[^18F]FTC-146], the brain clearance (σ1R [1]) is given as “unexpectedly slow brain clearance” and the Ki (σ1R [2]) is given as 0.0025 nM.

In the case of `Cc1nc(-c2ccc(Cl)cc2)nc(OCCCN2CCCCC2)c1Cl` [Lan-0101, 5‐chloro‐2‐(4‐chlorophenyl)‐4‐methyl‐6‐(3‐(piperidin‐1‐yl)propoxy)pyrimidine], the “binding affinities to non-target receptors or ion channels” value [3] is given as “no significant binding affinities”, the σ2R/σ1R (σ2R [4]) is given as 1344 and the brain penetration [5] is given as “good brain penetration”. For the same molecule, the antinociceptive effects (σ1R [6]) was “dose‐dependent antinociceptive effects”.

With `Cc1nc(-c2ccc(Cl)cc2)nc(OCCCN2CCN([11CH3])CC2)c1Cl` [[^11C]CNY-02] the “maximum standard uptake value (SUV) in the brain” value (σ1R [7]; male C57BL/6 mice, baseline PET/CT) was 0.7 and the “blocking effect, brain uptake normalized to maximum radioactivity in the blood” value (σ1R [7]; pre-treated with 1.0 mg kg^−1 of the corresponding unlabeled ligand) was “does not show a significant blocking effect”.

In the case of `COc1cc(CCN2CCN(CCCc3ccccc3)CC2)ccc1O[11CH3]` [[^11C]SA4503], the Ki [8] is given as 50 nM, the σ2R/σ1R (σ2R [9]) is given as 13.3–55.0 and the Ki [10] is given as 1.7 nM.

— paper PMC12140300, “Development of Carbon‐11 Labeled Pyrimidine Derivatives as Novel Positron Emission Tomography (PET) Agents Enabling Brain Sigma‐1 Receptor Imaging” (Advanced Science, 2025)
